Test results reported in patent US12257253B2, “Triamterene or nolatrexed for use in the treatment of phenylketonuria” (SOM INNOVATION BIOTECH, S.A., priority 2019, dated 2025).

Experiments:
Assay type in all cases: cell-based
Arg261Gln (R261Q) PAH [1] = molecular target: T1, Arg261Gln (R261Q) PAH (Homo sapiens (Human), UniProt P00439, R261Q); experiment: Phenylalanine hydroxylase residual protein amount (dot blot, COS-7 lysates); settings: COS-7 cells, compound 10 μM (sepiapterin 5 μM), 48 h; read-out: PAH protein level (immune blot signal) R261Q PAH Mean
T1 sequence (P00439 whole entry R261Q): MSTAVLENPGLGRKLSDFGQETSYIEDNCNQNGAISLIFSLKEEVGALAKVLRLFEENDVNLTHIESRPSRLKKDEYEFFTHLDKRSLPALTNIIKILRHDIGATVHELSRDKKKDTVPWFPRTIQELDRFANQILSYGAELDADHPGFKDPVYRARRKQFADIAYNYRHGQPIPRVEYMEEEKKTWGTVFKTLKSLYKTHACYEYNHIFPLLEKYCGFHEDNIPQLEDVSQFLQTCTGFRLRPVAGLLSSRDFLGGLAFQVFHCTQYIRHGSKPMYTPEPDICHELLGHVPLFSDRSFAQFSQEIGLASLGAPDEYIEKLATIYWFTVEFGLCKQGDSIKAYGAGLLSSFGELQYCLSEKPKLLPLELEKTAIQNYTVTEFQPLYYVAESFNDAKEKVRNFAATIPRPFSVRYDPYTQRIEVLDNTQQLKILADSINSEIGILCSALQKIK
Description: (§1) 3. Phenylalanine Hydroxylase Residual Protein Amount
(§2) The analysis of the residual PAH protein amount was based on the method described in Gersting S. W. et al., Human Molecular Genetics, 2010, 19(10), 2039-2049 with modifications.
(§3) Detection of the residual PAH protein amount was performed as a dot blot using the lysates obtained from the cell culture where transiently transfected COS-7 cells (with wild-type PAH or PAH variant) were exposed for 48 h to compounds. The experiment was carried out from the same samples as used for measuring enzyme activities.
(§4) 2 μl of the lysate were dropped onto the nitrocellulose membrane. The membrane was allowed to air dry at room temperature for 30 min followed by 40 min blocking in 5% milk in TBS-Tween (room temperature). The membrane was incubated with the mouse monoclonal primary antibody specific for PAH (Millipore, Cat. No. MAB5278, 1:1000 dilution in 5% milk in TBS-Tween) for overnight at 4° C. Next, the membrane was washed (3×10 min in TBS-Tween) and incubated with the secondary HRP-conjugated antibody (anti-mouse antibody; Santa Cruz Biotechnology, Inc., Cat. No. sc-2005; 1:1000 dilution in 5% milk in TBS-Tween) followed by thorough washing in TBS-Tween (3×10 min) and distilled water (1×10 min). Blots were visualized with Pierce™ ECL substrate (ThermoFisher Scientific, Cat No. 32106) and chemiluminescence was monitored with a DIANA III Imaging system or ChemiDoc™ MP Imaging System (BioRad). To analyze the compound effect on the PAH protein amount densitometry analysis was performed using ImageJ Software.
(§5) The effect of compound on PAH protein amount was calculated from triplicates. As for determination of the enzyme activity the background of the not transfected cells (NT) was subtracted from the transfected cells (NCC or compound treated). In the next step delta of the NCC versus compound treated cells was calculated. Residual protein amount greater than 100% represents an increase in the stability of the enzyme with respect to NCC.

wild-type PAH [2] = molecular target: T2, wild-type PAH (Homo sapiens (Human), UniProt P00439); experiment: as above; settings: COS-7 cells, compound 10 μM (sepiapterin 5 μM), 48 h; read-out: PAH protein level (immune blot signal) WT PAH Mean
T2 sequence (P00439 whole entry): as the sequence (P00439 whole entry R261Q) above, with Q261R counted along it
Description: as §1, §2, §3, §4, §5

Arg261Gln (R261Q) PAH [3] = molecular target: T1, Arg261Gln (R261Q) PAH; experiment: Phenylalanine hydroxylase enzyme activity assay in transfected COS7 cells; settings: compound 10 μM (sepiapterin 5 μM), 48 h
Description: (§6) 2. Phenylalanine Hydroxylase Enzyme Activity Assay
(§7) This assay was completed in cell culture to analyze the enzyme activity in the presence of compounds. In brief, wild-type or Arg261Gln PAH constructs were transiently expressed in COS7-cells in a 96 well format reflecting the PAH genotype (COS7 cell line has no endogenous PAH). Cells were treated with the compounds at a final concentration of 10 μM and the enzyme activity of PAH was analyzed 48 h after transfection. The effect of the compounds on the residual enzyme activity was determined in comparison to non-treated cells (NCC, only compound solvent final 0.1%). To normalize the cellular background signal non transfected cells (NT control) were treated with compound or solvent equally for 48 h. As a positive control we used sepiapterin, a stable precursor of BH4 (CAS 17094-01-8), stabilized in 100 mM DTT, in a final concentration of 5 μM.
(§8) PAH activities were assayed at 25° C. as previously described (Gersting, S. W., J. Biol. Chem., 2010, 285(40), 30686-30697) with modifications. The standard mixture contained 22.35 mM NaHepes, pH 7.0, […] catalase, 10 μM ferrous ammonium sulphate, and 1 mM L-Phe (L-phenylalanine) final. Assay mixture and cell culture enzyme were pre-incubated for 5 min and the reaction was initiated by the addition of 75 μM BH4 (stabilized in 100 mM dithiothreitol) final, run for 60 min and stopped by acetic acid. The amount of L-tyrosine production was measured and quantified by HPLC, assayed as triplicates.
(§9) The effect of compound on PAH enzyme activity was calculated from triplicates as follows: first the background of the NT cells were subtracted from the transfected cells (treated or NCC) and then the percentage of treated (compound) versus NCC was determined. Enzyme activity greater than 100% represents an increase in the enzyme activity with respect to NCC.

wild-type PAH [4] = molecular target: T2, wild-type PAH; experiment: as above; settings: compound 10 μM (sepiapterin 5 μM), 48 h
Description: as §6, §7, §8, §9

PAH protein level (% of control) at 10 µM (Arg261Gln (R261Q) PAH [1]): 130% | PAH protein level (% of control) at 10 µM (wild-type PAH [2]): 110% | PAH enzyme activity (L-Tyrosine formation) R261Q PAH Mean (Arg261Gln (R261Q) PAH [3]): 161.48 % NCC | PAH enzyme activity (L-Tyrosine formation) WT PAH Mean (wild-type PAH [4]): 118.98 % NCC
Structure (SMILES): Nc1nc(N)c2nc(-c3ccccc3)c(N)nc2n1 [Triamterene, 2,4,7-triamino-6-phenylpteridine]
